pIC50: −log10 of the molar value.
What follows are compounds tested against T1, recombinant LRRK2 kinase (Homo sapiens, UniProt Q5S007) (assay: LRRK2 kinase inhibition (Kinase-Glo luminescence)). Settings: IC50 grade; 25 μmol/L ATP, LRRKtide, 30° C. 2 hours; read-out: Enzyme activity LRRK2.
T1 construct: purchased Signal Chem, Richmond, BC, Canada
Type: biochemical
Description: Upon completion of the reaction, an equal amount of Kinase-Glo (Promega, Madison, Wis.) solution was added thereto, followed by reaction for 40 minutes. A detection solution was added thereto, followed by further reaction at room temperature for 30 minutes. Then, IC50 of kinase was calculated by measuring the amount of luciferase using a microplate ELISA reader (Bio-Tek).

T1 sequence (Q5S007 whole entry): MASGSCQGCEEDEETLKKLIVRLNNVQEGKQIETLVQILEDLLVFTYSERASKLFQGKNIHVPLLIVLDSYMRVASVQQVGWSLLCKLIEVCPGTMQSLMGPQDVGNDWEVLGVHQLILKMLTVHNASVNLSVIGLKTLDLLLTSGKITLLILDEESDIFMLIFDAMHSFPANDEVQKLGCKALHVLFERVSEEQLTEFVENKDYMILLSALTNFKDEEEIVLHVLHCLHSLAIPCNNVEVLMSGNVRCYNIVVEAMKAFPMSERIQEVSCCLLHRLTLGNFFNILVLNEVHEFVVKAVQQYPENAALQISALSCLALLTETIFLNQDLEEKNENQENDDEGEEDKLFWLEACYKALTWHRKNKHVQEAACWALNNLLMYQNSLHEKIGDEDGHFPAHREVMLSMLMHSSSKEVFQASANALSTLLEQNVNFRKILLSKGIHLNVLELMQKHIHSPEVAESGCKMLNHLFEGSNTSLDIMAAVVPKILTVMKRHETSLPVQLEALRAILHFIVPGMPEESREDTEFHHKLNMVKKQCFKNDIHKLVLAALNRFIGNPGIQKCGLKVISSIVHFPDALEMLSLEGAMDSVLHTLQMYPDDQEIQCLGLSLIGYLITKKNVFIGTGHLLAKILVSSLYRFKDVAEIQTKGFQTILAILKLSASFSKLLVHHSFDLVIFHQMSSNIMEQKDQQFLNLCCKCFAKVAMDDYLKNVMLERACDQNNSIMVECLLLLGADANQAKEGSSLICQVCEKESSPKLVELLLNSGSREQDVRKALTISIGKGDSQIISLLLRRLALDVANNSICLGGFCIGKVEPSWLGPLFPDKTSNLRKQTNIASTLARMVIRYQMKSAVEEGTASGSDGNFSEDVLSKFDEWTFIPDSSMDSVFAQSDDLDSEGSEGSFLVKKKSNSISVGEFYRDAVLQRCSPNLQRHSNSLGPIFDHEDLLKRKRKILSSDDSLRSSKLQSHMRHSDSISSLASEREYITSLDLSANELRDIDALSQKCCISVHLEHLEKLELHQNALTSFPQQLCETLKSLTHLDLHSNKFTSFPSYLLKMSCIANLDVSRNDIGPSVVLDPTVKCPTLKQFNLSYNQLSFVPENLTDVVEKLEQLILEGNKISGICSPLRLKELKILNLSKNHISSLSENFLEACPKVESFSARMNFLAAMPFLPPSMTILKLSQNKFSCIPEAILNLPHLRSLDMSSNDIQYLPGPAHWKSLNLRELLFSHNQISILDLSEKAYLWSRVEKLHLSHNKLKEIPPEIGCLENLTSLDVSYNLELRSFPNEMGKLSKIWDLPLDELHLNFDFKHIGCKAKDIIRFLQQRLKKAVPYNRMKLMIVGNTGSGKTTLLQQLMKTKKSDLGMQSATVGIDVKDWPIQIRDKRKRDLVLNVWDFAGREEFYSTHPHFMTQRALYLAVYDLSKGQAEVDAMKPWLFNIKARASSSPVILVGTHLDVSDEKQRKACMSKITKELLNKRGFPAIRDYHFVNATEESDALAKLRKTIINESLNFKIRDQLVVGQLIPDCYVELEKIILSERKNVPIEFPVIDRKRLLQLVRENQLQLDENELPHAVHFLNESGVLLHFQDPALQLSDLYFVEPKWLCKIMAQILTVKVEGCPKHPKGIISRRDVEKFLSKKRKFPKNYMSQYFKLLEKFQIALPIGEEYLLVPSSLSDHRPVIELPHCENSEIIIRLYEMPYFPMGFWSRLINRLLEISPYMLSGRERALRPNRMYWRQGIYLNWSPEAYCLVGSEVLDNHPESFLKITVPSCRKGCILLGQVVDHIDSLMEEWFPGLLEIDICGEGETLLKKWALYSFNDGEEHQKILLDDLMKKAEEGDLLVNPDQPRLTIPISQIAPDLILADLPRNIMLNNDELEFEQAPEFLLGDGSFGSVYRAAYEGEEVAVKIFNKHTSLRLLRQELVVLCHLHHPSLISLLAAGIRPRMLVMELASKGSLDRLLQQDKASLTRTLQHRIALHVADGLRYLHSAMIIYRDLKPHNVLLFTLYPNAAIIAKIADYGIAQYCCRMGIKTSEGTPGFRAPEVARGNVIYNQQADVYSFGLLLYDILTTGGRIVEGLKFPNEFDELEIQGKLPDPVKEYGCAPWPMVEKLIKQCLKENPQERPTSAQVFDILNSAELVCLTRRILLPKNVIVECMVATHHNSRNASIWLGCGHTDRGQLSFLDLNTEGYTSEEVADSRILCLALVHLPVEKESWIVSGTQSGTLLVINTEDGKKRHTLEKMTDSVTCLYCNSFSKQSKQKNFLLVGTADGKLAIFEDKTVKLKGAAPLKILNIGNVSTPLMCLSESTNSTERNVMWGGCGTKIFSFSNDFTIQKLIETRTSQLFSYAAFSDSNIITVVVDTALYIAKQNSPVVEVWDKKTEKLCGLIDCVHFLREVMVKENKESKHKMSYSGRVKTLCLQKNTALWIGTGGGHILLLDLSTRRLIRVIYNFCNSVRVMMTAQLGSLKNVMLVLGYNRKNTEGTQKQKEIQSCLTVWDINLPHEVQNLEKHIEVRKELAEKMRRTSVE

Row | SMILES | pIC50
1 | Cc1nn(C(C)C)cc1Nc1nc(NC2(C)CC2)c2c(C#N)c[nH]c2n1 [Example 39, 2-((1-isopropyl-3-methyl-1H-pyrazole-4-yl)amino)-4-((1-methylcyclopropyl)amino)-7H-pyrrolo[2,3-d]pyrimidine-5-carbonitrile] | > 8.00
2 | Cc1nn(C)cc1Nc1nc(NC2(C)CC2)c2c(C#N)c[nH]c2n1 [Example 40, 2-((1,3-dimethyl-1H-pyrazole-4-yl)amino)-4-((1-methylcyclopropyl)amino)-7H-pyrrolo[2,3-d]pyrimidine-5-carbonitrile] | > 8.00
3 | Cc1c(Nc2nc(NC3(C)CC3)c3c(C#N)c[nH]c3n2)cnn1C [Example 41, 2-((1,5-dimethyl-1H-pyrazole-4-yl)amino)-4-((1-methylcyclopropyl)amino)-7H-pyrrolo[2,3-d]pyrimidine-5-carbonitrile] | > 8.00
4 | COc1cc(C(=O)N2CCO[C@H](C)C2)ccc1Nc1nc(NC2(C)CC2)c2c(C#N)c[nH]c2n1 [Example 42, (R)-2-((2-methoxy-4-(2-methylmorpholine-4-carbonyl)phenyl)amino)-4-((1-methylcyclopropyl)amino)-7H-pyrrolo[2,3-d]pyrimidine-5-carbonitrile] | > 8.00
5 | COc1cc(C(=O)N2CCO[C@@H](C)C2)ccc1Nc1nc(NC2(C)CC2)c2c(C#N)c[nH]c2n1 [Example 43, (S)-2-((2-methoxy-4-(2-methylmorpholine-4-carbonyl)phenyl)amino)-4-((1-methylcyclopropyl)amino)-7H-pyrrolo[2,3-d]pyrimidine-5-carbonitrile] | > 8.00
6 | COc1cc(C(=O)N2C[C@@H](C)O[C@@H](C)C2)ccc1Nc1nc(NC2(C)CC2)c2c(C#N)c[nH]c2n1 [Example 44, 2-((4-((2R,6S)-2,6-dimethylmorpholine-4-carbonyl)-2-methoxyphenyl)amino)-4-((1-methylcyclopropyl)amino)-7H-pyrrolo[2,3-d]pyrimidine-5-carbonitrile] | 7.00 to 8.00
7 | COc1cc(C(=O)N2CCC(F)(F)CC2)ccc1Nc1nc(NC2(C)CC2)c2c(C#N)c[nH]c2n1 [Example 45, 2-((4-(4,4-difluoropiperidine-1-carbonyl)-2-methoxyphenyl)amino)-4-((1-methylcyclopropyl)amino)-7H-pyrrolo[2,3-d]pyrimidine-5-carbonitrile] | 7.00 to 8.00
8 | CNc1nc(Nc2cn(C(C)(C)C(N)=O)nc2C)nc2[nH]cc(C#N)c12 [Example 46, 2-(4-((5-cyano-4-(methylamino)-7H-pyrrolo[2,3-d]pyrimidine-2-yl)amino)-3-methyl-1H-pyrazole-1-yl)-2-methylpropaneamide] | > 8.00
9 | CNc1nc(Nc2cn(C(C)(C)C#N)nc2C)nc2[nH]cc(C#N)c12 [Example 47, 2-((1-(2-cyanopropane-2-yl)-3-methyl-1H-pyrazole-4-yl)amino)-4-(methylamino)-7H-pyrrolo[2,3-d]pyrimidine-5-carbonitrile] | > 8.00
10 | CCNc1nc(Nc2ncc(C(=O)N3CCOCC3)cc2OC)nc2[nH]cc(C#N)c12 [Example 48, 4-(ethylamino)-2-((3-methoxy-5-(morpholine-4-carbonyl)pyridine-2-yl)amino)-7H-pyrrolo[2,3-d]pyrimidine-5-carbonitrile] | < 7.00
11 | Cc1nn(C(C)(C)C#N)cc1Nc1nc(NC2(C)CC2)c2c(C#N)c[nH]c2n1 [Example 49, 2-((1-(2-cyanopropane-2-yl)-3-methyl-1H-pyrazole-4-yl)amino)-4-((1-methylcyclopropyl)amino)-7H-pyrrolo[2,3-d]pyrimidine-5-carbonitrile] | > 8.00
12 | CNc1nc(Nc2cnn([C@H]3CCN(C4COC4)C[C@@H]3F)c2Cl)nc2[nH]cc(C#N)c12 [Example 50, 2-((5-chloro-1-((3S,4S)-3-fluoro-1-(oxetane-3-yl)piperidine-4-yl)-1H-pyrazole-4-yl)amino)-4-(methylamino)-7H-pyrrolo[2,3-d]pyrimidine-5-carbonitrile] | > 8.00
13 | CCNc1nc(Nc2cnn([C@H]3CCN(C4COC4)C[C@@H]3F)c2Cl)nc2[nH]cc(C#N)c12 [Example 51, 2-((5-chloro-1-((3S,4S)-3-fluoro-1-(oxetane-3-yl)piperidine-4-yl)-1H-pyrazole-4-yl)amino)-4-(ethylamino)-7H-pyrrolo[2,3-d]pyrimidine-5-carbonitrile] | > 8.00
14 | CCNc1nc(Nc2cnn([C@H]3CCN(C4COC4)C[C@@H]3F)c2)nc2[nH]cc(C#N)c12 [Example 53] | > 8.00
15 | CC1(Nc2nc(Nc3cnn([C@H]4CCN(C5COC5)C[C@@H]4F)c3)nc3[nH]cc(C#N)c23)CC1 [Example 54, 2-((1-((3S,4S)-3-fluoro-1-(oxetane-3-yl)piperidine-4-yl)-1H-pyrazole-4-yl)amino)-4-((methylcyclopropyl)amino)-7H-pyrrolo[2,3-d]pyrimidine-5-carbonitrile] | > 8.00
16 | CNc1nc(Nc2ccc(C(=O)NC3CCN(C)CC3)cc2OC)nc2[nH]cc(C#N)c12 [Example 55, 4-((5-cyano-4-(methylamino)-7H-pyrrolo[2,3-d]pyrimidine-2-yl)amino)-3-methoxy-N-(1-methylpiperidine-4-yl)benzamide] | > 8.00
17 | CCNc1nc(Nc2ccc(C(=O)NC3CCN(C)CC3)cc2OC)nc2[nH]cc(C#N)c12 [Example 56, 4-((5-cyano-4-(ethylamino)-7H-pyrrolo[2,3-d]pyrimidine-2-yl)amino)-3-methoxy-N-(1-methylpiperidine-4-yl)benzamide] | > 8.00
18 | CNc1nc(Nc2ccc(C(=O)N3CCN(C4COC4)CC3)cc2OC)nc2[nH]cc(C#N)c12 [Example 57] | > 8.00

Results, then the compound that gave them:

Row | pIC50 | SMILES
19 | > 8.00 | CCNc1nc(Nc2ccc(C(=O)N3CCN(C4COC4)CC3)cc2OC)nc2[nH]cc(C#N)c12 [Example 58, 4-(ethylamino)-2-((2-methoxy-4-(4-(oxetane-3-yl)piperazine-1-carbonyl)phenyl)amino)-7H-pyrrolo[2,3-d]pyrimidine-5-carbonitrile]
20 | > 8.00 | CNc1nc(Nc2cnn(CCOC)c2Cl)nc2[nH]cc(C#N)c12 [Example 59, 2-((5-chloro-1-(2-methoxyethyl)-1H-pyrazole-4-yl)amino)-4-(methylamino)-7H-pyrrolo[2,3-d]pyrimidine-5-carbonitrile]
21 | 7.00 to 8.00 | CCNc1nc(Nc2ccc(C(=O)NC3CCN(C4COC4)CC3)cc2OC)nc2[nH]cc(C#N)c12 [Example 60, 4-((5-cyano-4-(ethylamino)-7H-pyrrolo[2,3-d]pyrimidine-2-yl)amino)-3-methoxy-N-(1-(oxetane-3-yl)piperidine-4-yl)benzylamide]
22 | 7.00 to 8.00 | CNc1nc(Nc2ccc(C(=O)NC3CCN(C4COC4)CC3)cc2OC)nc2[nH]cc(C#N)c12 [Example 61, 4-((5-cyano-4-(methylamino)-7H-pyrrolo[2,3-d]pyrimidine-2-yl)amino)-3-methoxy-N-(1-(oxetane-3-yl)piperidine-4-yl)benzylamide]
23 | > 8.00 | CCNc1nc(Nc2cnn(CCOC)c2Cl)nc2[nH]cc(C#N)c12 [Example 62, 2-((5-chloro-1-(2-methoxyethyl)-1H-pyrazole-4-yl)amino)-4-(ethylamino)-7H-pyrrolo[2,3-d]pyrimidine-5-carbonitrile]
24 | > 8.00 | CNc1nc(Nc2cc(F)c(C(=O)NC3CCN(C4COC4)CC3)cc2OC)nc2[nH]cc(C#N)c12 [Example 63, 4-((5-cyano-4-(methylamino)-7H-pyrrolo[2,3-d]pyrimidine-2-yl)amino)-2-fluoro-5-methoxy-N-(1-(oxetane-3-pyrrolidine-1-yl)piperidine-4-yl)benzamide]
25 | > 8.00 | CNc1nc(Nc2cc(F)c(C(=O)NC3CCN(C)CC3)cc2OC)nc2[nH]cc(C#N)c12 [Example 65, 4-((5-cyano-4-(methylamino)-7H-pyrrolo[2,3-d]pyrimidine-2-yl)amino)-2-fluoro-5-methoxy-N-(1-methylpiperidine-4-yl)benzamide]
26 | 7.00 to 8.00 | CCNc1nc(Nc2cc(F)c(C(=O)NC3CCN(C)CC3)cc2OC)nc2[nH]cc(C#N)c12 [Example 66, 4-((5-cyano-4-(ethylamino)-7H-pyrrolo[2,3-d]pyrimidine-2-yl)amino)-2-fluoro-5-methoxy-N-(1-methylpiperidine-4-yl)benzamide]
27 | > 8.00 | CNc1nc(Nc2cc(F)c(C(=O)NC3CCN(C(C)C)CC3)cc2OC)nc2[nH]cc(C#N)c12 [Example 67, 4-((5-cyano-4-(methylamino)-7H-pyrrolo[2,3-d]pyrimidine-2-yl)amino)-2-fluoro-N-(1-isopropylpiperidine-4-yl)-5-methoxybenzamide]
28 | > 8.00 | CCNc1nc(Nc2cc(F)c(C(=O)NC3CCN(C(C)C)CC3)cc2OC)nc2[nH]cc(C#N)c12 [Example 68, 4-((5-cyano-4-(ethylamino)-7H-pyrrolo[2,3-d]pyrimidine-2-yl)amino)-2-fluoro-N-(1-isopropylpiperidine-4-yl)-5-methoxybenzamide]
29 | > 8.00 | CNc1nc(Nc2cnn(CCO)c2)nc2[nH]cc(C#N)c12 [Example 69, 2-((1-(2-hydroxyethyl)-1H-pyrazole-4-yl)amino)-4-(methylamino)-7H-pyrrolo[2,3-d]pyrimidine-5-carbonitrile]
30 | > 8.00 | CCNc1nc(Nc2cnn(CCO)c2)nc2[nH]cc(C#N)c12 [Example 70, 4-(ethylamino)-2-((1-(2-hydroxyethyl)-1H-pyrazole-4-yl)amino)-7H-pyrrolo[2,3-d]pyrimidine-5-carbonitrile]
31 | > 8.00 | CNc1nc(Nc2cn(C(C)(C)C#N)nc2Cl)nc2[nH]cc(C#N)c12 [Example 71, 2-((3-chloro-1-(2-cyanopropane-2-yl)-1H-pyrazole-4-yl)amino)-4-(methylamino)-7H-pyrrolo[2,3-d]pyrimidine-5-carbonitrile]
32 | > 8.00 | CCNc1nc(Nc2cn(C(C)(C)C#N)nc2Cl)nc2[nH]cc(C#N)c12 [Example 72, 2-((3-chloro-1-(2-cyanopropane-2-yl)-1H-pyrazole-4-yl)amino)-4-(ethylamino)-7H-pyrrolo[2,3-d]pyrimidine-5-carbonitrile]
